# Test results from patent US20240181056A1, “CHIMERIC ANTIGEN RECEPTOR (CAR)-T CELLS” (Imperial College Innovations Limited, priority 2021, published 2024).
# What was measured:
# [1] = test system: T cells transduced with CART4 (tEGFR high cells); assay: In vitro suicide assay (iC9 safety switch, CID-induced apoptosis); assay type: cell-based, human
# Description: CART4 with or without iC9 cells were generated with retroviral transduction with CART4 or CART4 w/o iC9 construct. CAR-T cells were kept expanded for five to seven days after transduction. A […] (CID), the B/B homodimerizer AP20187 (Clontech Laboratories), was added at a various concentration to T cell culture. The induction of apoptosis induced by CID was evaluated 24 hr later using Annexin-v/7-AAD (BD Biosciences) staining and flow cytometry analysis. Survival cells were quantified by counting beads (BD Biosciences). Survival index was calculated as follows: number of living tEGFR^+ cells/number of living tEGFR^+ cells in untreated control samples.
# In order to evaluate the efficiency of iC9 safety switch in vitro, a CART4 variation without the iC9 gene (CART4 w/o iC9) was cloned as a control. T cells transduced with CART4 or CART4 without iC9 construct were exposed to increasing concentrations of the CID AP20187 (0.1 nM to 100 nM) for 24 hours. Cell death was accessed by flow cytometry analysis with 7AAD and Annexin-V. The tEGFR-positive percentage in the survived population dropped along with the increasing concentration of the CID. […] Consistent with the observations from other studies, the cells that escape killing were those expressing low levels of the transgene with a 50% reduction in mean fluorescence intensity (MFI) of tEGFR after CID (FIG. 1E). […]
# [2] = biological target: CD4 antigen (T-cell surface glycoprotein CD4 [Homo sapiens]) (human) (UniProt P01730); assay: cell-based or functional assay
# [3] = biological target: TCR Vbeta 7.1 chain (H. sapiens rearranged TCR Vbeta 7.1) (human); assay: cell-based or functional assay
# TCR Vbeta 7.1 chain (H. sapiens rearranged TCR Vbeta 7.1) (human), sequence (A0A577 whole entry, form in doubt): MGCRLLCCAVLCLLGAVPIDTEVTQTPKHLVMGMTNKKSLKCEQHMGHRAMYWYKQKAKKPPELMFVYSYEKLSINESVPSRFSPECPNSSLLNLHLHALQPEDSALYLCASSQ
Compound,reduction in mean fluorescence intensity (MFI) of tEGFR in cells that escape killing ([1]; after CID),"tEGFR high cells eliminated ([1]; single 100 nM dose of CID, 24 hours, flow cytometry 7AAD/Annexin-V)",CD4-positive cells remaining after transduction with control CAR (flow cytometry) [2],TCR Vβ7.1-positive cells remaining after transduction with control CAR (flow cytometry) [3]
CC[C@H](C(=O)N1CCCC[C@H]1C(=O)O[C@H](CCc1ccc(OC)c(OC)c1)c1cccc(OCC(=O)NCC(CNC(=O)COc2cccc([C@@H](CCc3ccc(OC)c(OC)c3)OC(=O)[C@@H]3CCCCN3C(=O)[C@@H](CC)c3cc(OC)c(OC)c(OC)c3)c2)CN(C)C)c1)c1cc(OC)c(OC)c(OC)c1 [AP20187],50%,69.1%,,
CART20 chimeric antigen receptor (anti-CD20 CAR with scFv of monoclonal antibody Leu16),,,45%,1.2%
